Laboratory results: ChEMBL document CHEMBL3739350, “Novel hydrazone moiety-bearing aminopyrimidines as selective inhibitors of epidermal growth factor receptor T790M mutant” (Eur J Med Chem, 2015)

What was measured:
A549 = assay: Antiproliferative activity against human A549 cells harboring wild type EGFR/k-Ras mutation after 72 hrs by MTT assay; type: functional, cell-based; details: A549, 72 h
HT-29 = assay: cells; type: functional, cell-based; details: Homo sapiens, HT-29, 72 h
Description: Cytotoxicity against human HT-29 cells assessed as inhibition of cell proliferation after 72 hrs by MTT assay

NCI-H1975 = assay: cells; type: functional, cell-based; details: Homo sapiens, NCI-H1975, 72 h
[1] = target: Epidermal growth factor receptor (Homo sapiens, UniProt P00533, L858R/T790M); type: protein assay
Sequence of Epidermal growth factor receptor (Homo sapiens, UniProt P00533, L858R/T790M) (P00533 25-1210 T790M/L858R limits assumed): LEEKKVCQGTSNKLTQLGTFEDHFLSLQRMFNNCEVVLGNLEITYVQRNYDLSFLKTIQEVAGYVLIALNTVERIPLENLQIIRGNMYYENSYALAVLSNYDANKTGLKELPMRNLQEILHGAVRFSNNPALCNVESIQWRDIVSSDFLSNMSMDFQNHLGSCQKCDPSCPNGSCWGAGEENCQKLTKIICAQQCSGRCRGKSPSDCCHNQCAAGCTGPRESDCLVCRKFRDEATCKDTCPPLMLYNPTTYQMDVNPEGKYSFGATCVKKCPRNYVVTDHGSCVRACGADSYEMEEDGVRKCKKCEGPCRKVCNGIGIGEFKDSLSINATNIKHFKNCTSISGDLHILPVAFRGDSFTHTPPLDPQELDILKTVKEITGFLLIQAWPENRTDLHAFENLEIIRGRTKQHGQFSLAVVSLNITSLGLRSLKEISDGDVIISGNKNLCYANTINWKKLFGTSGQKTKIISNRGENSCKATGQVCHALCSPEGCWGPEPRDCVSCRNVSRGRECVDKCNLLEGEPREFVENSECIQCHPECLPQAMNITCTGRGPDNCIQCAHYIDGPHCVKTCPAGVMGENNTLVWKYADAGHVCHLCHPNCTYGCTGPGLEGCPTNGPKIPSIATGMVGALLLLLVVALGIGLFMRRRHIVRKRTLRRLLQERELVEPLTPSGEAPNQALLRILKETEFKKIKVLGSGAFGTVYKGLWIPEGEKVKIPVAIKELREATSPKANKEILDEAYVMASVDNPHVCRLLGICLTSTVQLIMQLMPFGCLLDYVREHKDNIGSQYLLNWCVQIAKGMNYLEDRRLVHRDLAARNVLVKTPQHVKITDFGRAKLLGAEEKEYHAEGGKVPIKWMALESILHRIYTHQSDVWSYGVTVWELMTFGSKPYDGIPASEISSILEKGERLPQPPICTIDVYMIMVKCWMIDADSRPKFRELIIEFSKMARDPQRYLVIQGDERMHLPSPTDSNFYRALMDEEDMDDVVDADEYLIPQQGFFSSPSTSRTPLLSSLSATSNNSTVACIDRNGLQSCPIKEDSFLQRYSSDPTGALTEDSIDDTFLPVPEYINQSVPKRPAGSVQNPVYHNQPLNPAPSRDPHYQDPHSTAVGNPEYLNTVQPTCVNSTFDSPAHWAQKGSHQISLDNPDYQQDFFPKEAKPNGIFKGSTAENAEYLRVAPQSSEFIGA

[2] = target: Epidermal growth factor receptor (Homo sapiens, UniProt P00533); assay: Inhibition of wild type recombinant human EGFR preincubated for 10 mins followed by FAM-labeled peptide/ATP addition measured after 1 hr by mobility shift assay
Sequence of Epidermal growth factor receptor (Homo sapiens, UniProt P00533) (P00533 whole entry): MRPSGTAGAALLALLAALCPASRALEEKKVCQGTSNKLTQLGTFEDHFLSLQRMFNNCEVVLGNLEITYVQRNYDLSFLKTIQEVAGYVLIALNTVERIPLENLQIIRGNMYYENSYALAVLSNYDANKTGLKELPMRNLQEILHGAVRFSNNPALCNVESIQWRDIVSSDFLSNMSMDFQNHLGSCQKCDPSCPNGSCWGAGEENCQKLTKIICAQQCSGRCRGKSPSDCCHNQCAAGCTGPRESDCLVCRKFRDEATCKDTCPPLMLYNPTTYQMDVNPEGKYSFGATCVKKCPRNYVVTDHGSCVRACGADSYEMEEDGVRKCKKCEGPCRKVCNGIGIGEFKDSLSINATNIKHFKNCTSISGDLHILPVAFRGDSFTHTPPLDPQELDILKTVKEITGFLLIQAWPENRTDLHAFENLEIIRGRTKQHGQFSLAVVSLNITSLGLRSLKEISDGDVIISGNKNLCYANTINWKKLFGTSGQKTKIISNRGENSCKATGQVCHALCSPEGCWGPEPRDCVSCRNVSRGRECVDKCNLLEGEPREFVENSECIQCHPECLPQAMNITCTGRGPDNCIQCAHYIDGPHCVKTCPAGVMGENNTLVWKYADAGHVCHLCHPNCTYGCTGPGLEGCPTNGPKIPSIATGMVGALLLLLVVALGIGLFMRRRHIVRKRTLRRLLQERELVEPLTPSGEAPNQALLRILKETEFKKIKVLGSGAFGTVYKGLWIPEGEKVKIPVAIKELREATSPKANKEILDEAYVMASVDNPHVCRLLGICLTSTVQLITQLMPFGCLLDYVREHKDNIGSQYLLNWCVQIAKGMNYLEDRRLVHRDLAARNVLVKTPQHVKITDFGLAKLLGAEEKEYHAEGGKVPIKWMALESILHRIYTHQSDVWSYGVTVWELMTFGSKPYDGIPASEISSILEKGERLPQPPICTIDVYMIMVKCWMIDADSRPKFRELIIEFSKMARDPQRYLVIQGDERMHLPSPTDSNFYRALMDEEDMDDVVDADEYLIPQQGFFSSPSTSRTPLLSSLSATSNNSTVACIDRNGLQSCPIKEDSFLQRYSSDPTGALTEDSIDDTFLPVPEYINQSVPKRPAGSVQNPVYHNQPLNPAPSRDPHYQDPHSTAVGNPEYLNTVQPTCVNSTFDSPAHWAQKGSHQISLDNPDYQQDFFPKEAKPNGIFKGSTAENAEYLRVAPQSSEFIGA

[3] = target: Epidermal growth factor receptor (Homo sapiens, UniProt P00533, T790M); type: protein assay
Sequence of Epidermal growth factor receptor (Homo sapiens, UniProt P00533, T790M) (P00533 25-1210 T790M limits assumed): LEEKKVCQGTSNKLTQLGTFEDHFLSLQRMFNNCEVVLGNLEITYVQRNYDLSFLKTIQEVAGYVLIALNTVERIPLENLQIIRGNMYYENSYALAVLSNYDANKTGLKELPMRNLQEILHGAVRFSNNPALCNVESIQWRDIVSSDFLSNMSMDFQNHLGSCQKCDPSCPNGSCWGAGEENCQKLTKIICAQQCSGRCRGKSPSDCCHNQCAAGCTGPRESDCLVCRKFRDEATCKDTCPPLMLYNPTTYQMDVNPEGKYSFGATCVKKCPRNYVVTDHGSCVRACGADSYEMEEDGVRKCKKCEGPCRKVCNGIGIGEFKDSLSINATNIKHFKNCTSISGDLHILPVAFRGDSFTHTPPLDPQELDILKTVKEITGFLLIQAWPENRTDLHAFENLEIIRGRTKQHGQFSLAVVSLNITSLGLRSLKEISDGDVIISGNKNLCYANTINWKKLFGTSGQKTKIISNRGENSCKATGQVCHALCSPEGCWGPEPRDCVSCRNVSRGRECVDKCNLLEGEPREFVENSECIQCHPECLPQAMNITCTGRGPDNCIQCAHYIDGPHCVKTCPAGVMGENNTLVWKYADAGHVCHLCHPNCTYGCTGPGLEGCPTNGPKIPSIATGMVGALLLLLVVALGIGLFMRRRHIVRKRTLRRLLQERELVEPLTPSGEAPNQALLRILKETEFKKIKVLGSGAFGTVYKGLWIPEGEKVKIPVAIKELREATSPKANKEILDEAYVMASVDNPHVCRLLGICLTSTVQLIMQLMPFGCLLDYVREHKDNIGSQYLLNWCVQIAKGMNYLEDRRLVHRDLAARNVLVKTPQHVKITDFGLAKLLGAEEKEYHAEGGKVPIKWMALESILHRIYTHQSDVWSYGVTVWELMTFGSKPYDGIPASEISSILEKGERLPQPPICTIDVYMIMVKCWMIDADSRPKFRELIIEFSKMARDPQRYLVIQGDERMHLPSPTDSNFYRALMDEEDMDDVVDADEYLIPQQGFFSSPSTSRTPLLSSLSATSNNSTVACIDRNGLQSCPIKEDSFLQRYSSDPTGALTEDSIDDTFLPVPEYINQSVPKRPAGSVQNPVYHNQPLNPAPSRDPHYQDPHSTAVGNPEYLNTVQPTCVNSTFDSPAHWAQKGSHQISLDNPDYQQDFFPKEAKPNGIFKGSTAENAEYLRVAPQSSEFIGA

[4] = target: Epidermal growth factor receptor (Homo sapiens, UniProt P00533, DELE746/T790M); type: protein assay
Sequence of Epidermal growth factor receptor (Homo sapiens, UniProt P00533, DELE746/T790M) (P00533 whole entry E746del/T790M, looked up): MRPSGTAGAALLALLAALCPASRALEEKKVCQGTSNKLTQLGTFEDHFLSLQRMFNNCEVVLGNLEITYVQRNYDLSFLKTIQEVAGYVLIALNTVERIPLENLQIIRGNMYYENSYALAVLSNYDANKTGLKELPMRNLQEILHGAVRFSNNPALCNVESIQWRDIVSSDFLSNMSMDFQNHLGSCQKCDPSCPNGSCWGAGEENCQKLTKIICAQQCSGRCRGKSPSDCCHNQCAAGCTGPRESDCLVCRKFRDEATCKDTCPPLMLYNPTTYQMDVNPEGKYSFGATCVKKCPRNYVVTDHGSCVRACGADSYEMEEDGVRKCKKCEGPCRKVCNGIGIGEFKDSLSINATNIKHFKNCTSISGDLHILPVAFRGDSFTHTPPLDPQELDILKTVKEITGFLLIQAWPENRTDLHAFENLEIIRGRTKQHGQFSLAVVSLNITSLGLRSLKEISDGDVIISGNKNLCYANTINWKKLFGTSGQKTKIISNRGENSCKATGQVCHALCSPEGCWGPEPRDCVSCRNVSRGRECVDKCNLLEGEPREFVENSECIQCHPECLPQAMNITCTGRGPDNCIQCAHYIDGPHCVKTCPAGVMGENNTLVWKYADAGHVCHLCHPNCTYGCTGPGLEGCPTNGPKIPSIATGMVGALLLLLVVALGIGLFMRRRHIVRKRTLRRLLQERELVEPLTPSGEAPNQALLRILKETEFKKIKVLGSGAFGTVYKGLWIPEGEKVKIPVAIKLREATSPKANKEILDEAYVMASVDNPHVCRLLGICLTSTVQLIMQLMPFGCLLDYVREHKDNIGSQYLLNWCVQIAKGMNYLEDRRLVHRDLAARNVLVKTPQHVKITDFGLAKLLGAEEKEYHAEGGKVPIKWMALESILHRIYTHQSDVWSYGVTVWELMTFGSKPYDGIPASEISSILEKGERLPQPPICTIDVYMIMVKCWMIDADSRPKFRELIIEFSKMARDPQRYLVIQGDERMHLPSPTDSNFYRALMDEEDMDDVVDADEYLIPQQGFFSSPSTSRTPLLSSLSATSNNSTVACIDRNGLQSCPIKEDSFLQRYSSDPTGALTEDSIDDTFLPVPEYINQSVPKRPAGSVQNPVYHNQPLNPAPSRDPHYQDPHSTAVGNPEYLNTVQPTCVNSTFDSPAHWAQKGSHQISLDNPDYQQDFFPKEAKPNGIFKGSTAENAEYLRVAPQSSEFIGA

| SMILES | IC50 (A549) [µM] | IC50 (HT-29) [µM] | IC50 (NCI-H1975) [µM] | IC50 [1] [µM] | IC50 [2] [µM] | IC50 [3] [µM] | IC50 [4] [µM] |
| --- | --- | --- | --- | --- | --- | --- | --- |
| C=CC(=O)Nc1cccc(Oc2nc(Nc3ccc(N4CCN(C)CC4)cc3OC)ncc2Cl)c1 | 1.87 | 2.95 | 0.058 |  |  |  |  |
| COc1ccc(/C(C)=N/Nc2ncc(Cl)c(Nc3cccc(NC(=O)/C=C/CN(C)C)c3)n2)cc1 | 7.12 | 6.83 | 0.99 |  |  |  |  |
| C=CC(=O)Nc1cccc(Nc2nc(NNC(=O)c3ccc(OC)cc3)ncc2Cl)c1 | 26 |  | 8.46 |  |  |  |  |
| C=CC(=O)Nc1cccc(Nc2nc(N/N=C(\C)c3ccc(F)cc3F)ncc2Cl)c1 | 1.63 | 4.36 | 0.3 | 2.27 | 11.8 |  |  |
| C=CC(=O)Nc1cccc(Nc2nc(N/N=C(\C)c3ccc(OC)cc3)ncc2Cl)c1 | 7.71 | 4.56 | 1.06 |  |  |  |  |
| C=CC(=O)Nc1cccc(Nc2nc(N/N=C(\C)c3cccc(OC)c3)ncc2Cl)c1 | 10.3 | 8.99 | 1.19 |  |  |  |  |
| C=CC(=O)Nc1cccc(Nc2nc(N/N=C/c3ccc(F)cc3)ncc2Cl)c1 | 10.4 | 6.34 | 0.43 | 0.86 | > 20 | 1.12 | 0.57 |
| C=CC(=O)Nc1cccc(Nc2nc(NNC(=O)c3ccc(F)cc3)ncc2Cl)c1 | 31 |  | 5.31 |  |  |  |  |
| CN(C)C/C=C/C(=O)Nc1cccc(Nc2nc(N/N=C/c3cn(Cc4ccccc4)c4ccccc34)ncc2Cl)c1 | 2.91 | 2.12 | 0.26 | 0.88 | > 20 | 0.79 | 0.76 |
| C=CC(=O)Nc1cccc(Nc2nc(N/N=C(\C)c3ccc(F)cc3)ncc2Cl)c1 | 8.2 | 5.05 | 0.39 | 1.68 | > 20 | 2.53 | 1.29 |
| C/C(=N\Nc1ncc(Cl)c(Nc2cccc(NC(=O)/C=C/CN(C)C)c2)n1)c1ccccn1 | 0.83 | 0.12 | 0.077 | 2.38 | > 20 |  |  |
| C=CC(=O)Nc1cccc(Nc2nc(N/N=C(\C)c3ccc(C)cc3)ncc2Cl)c1 | 5.36 | 3.21 | 0.74 | 5.67 | > 20 |  |  |
| C=CC(=O)Nc1cccc(Nc2nc(N/N=C(\C)c3ccncc3)ncc2Cl)c1 | 28.7 | 12.8 | 3.69 |  |  |  |  |
| C=CC(=O)Nc1cccc(Nc2nc(N/N=C/c3cn(Cc4ccccc4)c4ccccc34)ncc2Cl)c1 | > 100 | 11 | 1.35 |  |  |  |  |
| Nc1cccc(Nc2nc(N/N=C/c3ccc(F)cc3)ncc2Cl)c1 | 13.7 | 12.3 | 9.92 |  |  |  |  |

Second part, the compound after the results:

| IC50 (A549) [µM] | IC50 (HT-29) [µM] | IC50 (NCI-H1975) [µM] | IC50 [1] [µM] | IC50 [2] [µM] | IC50 [3] [µM] | IC50 [4] [µM] | SMILES |
| --- | --- | --- | --- | --- | --- | --- | --- |
| 6.24 | 4.82 | 1.58 |  |  |  |  | COc1ccc(/C=N/Nc2ncc(Cl)c(Nc3cccc(NC(=O)/C=C/CN(C)C)c3)n2)cc1 |
| 6.06 | 3.5 | 0.29 | 1.51 | > 20 | 4.74 | 1.91 | C=CC(=O)Nc1cccc(Nc2nc(N/N=C/c3ccccc3F)ncc2Cl)c1 |
| 8.96 | 10.2 | 1.16 | 2.35 | 15.3 |  |  | C/C(=N\Nc1ncc(Cl)c(Nc2cccc(NC(=O)/C=C/CN(C)C)c2)n1)c1ccc(F)cc1 |
| 11.4 | 3.87 | 0.91 |  |  |  |  | COc1cccc(/C(C)=N/Nc2ncc(Cl)c(Nc3cccc(NC(=O)/C=C/CN(C)C)c3)n2)c1 |
| 47.7 | 25.2 | 4.13 |  |  |  |  | CN(C)C/C=C/C(=O)Nc1cccc(Nc2nc(N/N=C/c3ccncc3)ncc2Cl)c1 |
| 11.2 | 4.76 | 0.38 | 11.6 | > 20 |  |  | C=CC(=O)Nc1cccc(Nc2nc(N/N=C/c3ccc(F)cc3F)ncc2Cl)c1 |
| 28.7 | 9.68 | 5.45 | > 20 | > 20 |  |  | CN(C)C/C=C/C(=O)Nc1cccc(Nc2nc(N/N=C/c3c[nH]c4ccccc34)ncc2Cl)c1 |
| 5.57 | 3.46 | 0.48 | 0.72 | > 20 | 0.82 | 1.25 | C/C(=N\Nc1ncc(Cl)c(Nc2cccc(NC(=O)/C=C/CN(C)C)c2)n1)c1ccc(F)cc1F |
| 34.9 | 10.9 | 6.24 |  |  |  |  | C/C(=N\Nc1ncc(Cl)c(Nc2cccc(NC(=O)/C=C/CN(C)C)c2)n1)c1ccncc1 |
| 10.8 | 11.8 | 1.37 |  |  |  |  | C/C(=N\Nc1ncc(Cl)c(Nc2cccc(NC(=O)/C=C/CN(C)C)c2)n1)c1ccc(C)cc1 |
| 2.17 | 2.92 | 0.17 | 2.52 | > 20 | 2.51 | 5.11 | CN(C)C/C=C/C(=O)Nc1cccc(Nc2nc(N/N=C/c3ccc(F)cc3F)ncc2Cl)c1 |
| 17.3 | 9.66 | 2.35 | 4.32 | > 20 |  |  | C/C(=N\Nc1ncc(Cl)c(Nc2cccc(NC(=O)/C=C/CN(C)C)c2)n1)c1cccnc1 |
